Holding throughout (assay): inhibition of tumour cell growth, NCI panel, 48 h
The subject of test [1] is A549 NSCLC.
Test [2] has as its system DU-145 prostate.
In test [3] the test system is SK-MEL-28 melanoma.
In test [4] the test system is KM12 colon.
The test system of test [5] is SF-539 CNS.
For test [6], the system named is HS 578T breast.
The test system of test [7] is SK-OV-3 ovarian.
Test [8] concerns A498 renal.
In test [9] the test system is NCI-H226 lung.

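A five-concentration, 48-hour dose response in 96-well plates underlies each endpoint, interpolated linearly between surrounding concentrations. At the GI50, growth is halved. TGI: total growth inhibition.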 A value given as a limit tells only on which side of the number the result lay.

As to `C[C@@]1(O)CCC[C@H]1n1c(=O)c(C(F)F)cc2cnc(NC3CCN(S(C)(=O)=O)CC3)nc21`, the GI50 in test [1] is 1.66 µM; in test [2], 2.18 µM; in test [3], 2.06 µM; in test [4] it was 1.8 µM; in [5], 1.17 µM; in test [6], 1.48 µM. Also, the TGI in [1] was over 100 µM; in test [2] it was 54.7 µM; in test [3], 10.9 µM; in test [4], over 100 µM; in test [5], 3.45 µM; in [6], 7.28 µM.

Turning to `CC(C)=CCC/C(C)=C/CC/C(C)=C/C1CCC(=O)C1(C)C` (stereo unspecified), the TGI turned out to be 77.6 µM in test [1]; 81 µM in test [7]; 36.9 µM in test [8]; 54 µM in test [3]; 29.4 µM in test [9]; 32.7 µM in [4]. In test [5], this compound yielded a TGI of 38.9 µM.

`Cc1nc(-n2nc(-c3ccccc3)cc2-c2ccccc2)sc1C(=O)/C=C/c1ccc(Cl)cc1`: the TGI in [1] is 64.9 µM; in test [7] it was over 100 µM; in test [8], 83.3 µM; in test [3] it was 33.6 µM; in test [9], 42.1 µM; in test [4] it was 25.6 µM. For the same compound, in test [5], the TGI is 27.4 µM.

For the compound `[N-]=[N+]=NC1C2CC3CC(C2)CC1C3` (stereo unspecified), the TGI in test [1], in [7], in test [8], in test [3], in [9] and in [4] was over 100 µM in each case. In test [5], this compound displayed a TGI of over 100 µM.

Consider `CCN(CC)/[N+]([O-])=N/OCC(C)O` (stereo unspecified), for which the TGI in test [1], in test [7], in [8], in [3], in test [9] and in [4] was over 100 µM in each case. Further, the TGI in test [5] was over 100 µM.

Turning to `N.N.NCCCCCN.O=C([O-])CC(=O)[O-].O=C([O-])CC(=O)[O-].[Pt+4].[Pt+4]`, the GI50 in [1], in [7], in test [8], in test [3], in [9] and in test [4] was over 100 µM each time. Also, the GI50 in test [5] is 77.4 µM. The TGI in test [1], in [7], in [8], in [3], in test [9] and in test [4] was over 100 µM throughout. In test [5], this compound had a TGI of over 100 µM.

Take `CCOc1ncnc2ccc(Cl)c(I)c12`: the TGI in test [1], in test [7], in [8], in test [3] and in [4] was over 100 µM throughout.

For the compound `COC(=O)C1=C(O)c2cc3c(cc2[C@H](c2cc(OC)c(OC)c(OC)c2)C1)OCO3`, the TGI in test [1] is over 100 µM; in test [7] it was over 100 µM; in test [8], 61.7 µM; in test [3], over 100 µM; in [9], over 100 µM; in test [4] it was 54.3 µM. This compound gave a TGI in [5] of over 100 µM.

Take `COc1cc(/C=C2\Cc3ccccc3C2=O)cc(OC)c1OC`: the TGI in test [1], in test [7], in test [3], in test [9], in test [4] and in test [5] was over 100 µM throughout.

Regarding `CC(=O)Oc1cc(Cl)c(OC(C)=O)c2c(OC(C)=O)c(C)c(O[Si](C)(C)C(C)(C)C)cc12`, the TGI in test [8] was determined as 4.77 µM; in test [3] it was 11.9 µM; in [4], 26.1 µM; in [5], 27.7 µM.

On to `CN=C(N)NC`, for which the TGI in test [1], in test [7], in [8], in test [3], in [9] and in [4] was over 100 µM in each case. The compound also returned a TGI in test [5] of over 100 µM.

For the compound `O=C(COC(=O)c1cccc2c(=O)c3ccccc3[nH]c12)Nc1ccc(S(=O)(=O)Nc2ncccn2)cc1`, the TGI in [1], in test [7], in test [8], in test [3], in test [9] and in test [4] was over 100 µM in each case. The TGI in test [5] worked out at 39.1 µM.

For the compound `Nc1nc(CC2(O)CCCCC2)cc(-c2ccccc2)n1`, the TGI in [1] was over 72.4 µM; in test [7], over 100 µM; in test [8], over 73.3 µM; in test [3] it was over 100 µM; in test [9], over 61.9 µM; in test [4], over 57 µM. In test [5], the TGI is over 100 µM.

In the case of `COc1ccc(/C=C2\CCc3ccccc3C2=O)cc1OC`, the TGI in [1] is over 100 µM; in [7] it was 78.9 µM; in test [8] it was over 100 µM; in test [3] it was 73.2 µM; in [4], 39.5 µM; in test [5], 65.9 µM.

Consider `CC(C)c1cc(C(=O)[O-])c(O)c(C(C)C)c1.CC(C)c1cc(C(=O)[O-])c(O)c(C(C)C)c1.CC(C)c1cc(C(=O)[O-])c(O)c(C(C)C)c1.CC(C)c1cc(C(=O)[O-])c(O)c(C(C)C)c1.CC(C)c1cc(C(=O)[O-])c(O)c(C(C)C)c1.CC(C)c1cc(C(=O)[O-])c(O)c(C(C)C)c1.[Cu+2].[Mn+2].[Mn+2]`, for which the GI50 is 11.1 µM in [1]; 2.61 µM in test [7]; 34.1 µM in [8]; 20.5 µM in test [3]; 18.2 µM in test [4]; 22.1 µM in test [5]. Moreover, the TGI in test [1] is 33.8 µM; in test [7] it was 16.1 µM; in [8] it was 82.2 µM; in test [3] it was 45.3 µM; in test [4], 43.4 µM; in test [5], 39.8 µM.

For `CC(=O)OC1(C#N)CC2OC1C1N=NN(C(=O)OC(C)(C)C)C21` (stereo unspecified), the TGI in test [7] was over 100 µM; in test [8], over 100 µM; in test [3], 35.6 µM; in test [9], over 100 µM; in [4], over 100 µM; in test [5] it was over 100 µM.

The values are drawn from PubChem BioAssay (NCI).
